According to patent US11376277B2, “Synergistic medicinal compositions for treating dysfunctional D-serine signaling” (CELAGENEX RESEARCH (INDIA) PVT. LTD., priority 2020, dated 2022):
Like-named read-outs stand apart in the source and are kept apart here.

Columns and labels:
[1] = target: T1, human SR (Homo sapiens, UniProt Q9GZT4); conditions: cited from earlier work
T1 sequence (Q9GZT4 1-340): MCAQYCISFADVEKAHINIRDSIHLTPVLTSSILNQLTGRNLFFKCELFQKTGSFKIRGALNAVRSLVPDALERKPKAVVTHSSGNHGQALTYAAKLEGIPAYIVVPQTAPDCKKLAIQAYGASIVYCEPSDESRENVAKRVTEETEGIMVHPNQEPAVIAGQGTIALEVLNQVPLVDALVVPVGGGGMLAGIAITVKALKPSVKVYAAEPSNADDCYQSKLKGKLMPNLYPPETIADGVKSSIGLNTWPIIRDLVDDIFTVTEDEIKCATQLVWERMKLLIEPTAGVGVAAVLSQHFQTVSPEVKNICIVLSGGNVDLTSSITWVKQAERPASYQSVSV

[2] = test system: D-serine; assay: Pharmacokinetics profile of D-serine in rat model, blood plasma; conditions: for ln(C) / Conc / AUC: D-serine in rat plasma; for Conc: doses per Table 1
Method: (§1) To assess and compare the pharmacokinetics profile of D-serine in rat model.
(§2) Six groups were divided into 4 sets of 3 rats each/subset for bleeding and organ (brain) collection—Total 72 rats
Plasma was separated using refrigerated centrifuge & stored in −80° C. before analysis. Blood was collected at time point 0, 2, 6 and 10 hrs at least from 3 rats/group/time point.
(§3) Supernatant was filtered with 0.2 micron amicon syringe filter (Millipore, Hessen, Germany), then directly transferred into auto sampler vials
(§4) An Accela™ ultra-high performance liquid chromatography (UHPLC) system (Thermo Fisher, Waltham, USA), coupled online via heated electrospray ionization source (HESI) with a Q-Exactive-Orbitrap mass spectrometer (Thermo Fisher), was employed for global metabolomics profiling with 1 μL sample injection volume. The metabolites were profiled using a C18 Hypersil Gold column (1.9 μm, 2.1×150 mm, Thermo).
(§5) The temperature of column oven was set at 35° C. and the sample manager was maintained at 4° C. The eluents acetonitrile and water containing 0.1% formic acid were employed in the electrospray ionization-positive (ESI+) mode.
(§6) The area under the plasma concentration time curve (AUC) value was calculated to the last quantifiable sample (AUClast) by using the log-linear trapezoidal rule.

[3] = test system: D-serine; assay: Pharmacokinetics profile of D-serine in rat model, brain tissue sample; conditions: for ln(C) / Conc / AUC: D-serine in rat brain tissue; for Conc: doses per Table 1
Method: as §1, §2
Organ (Brain) collection: Rats were sacrificed each time point (3 rats/group/time point) by decapitation at 0, 2, 6 or 10 hr post dose. Brain was removed and cerebellum dissected on ice. Tissue samples were frozen on dry ice and stored at −80° C. until analysis.
as §3, §4, §5, §6

[4] = D-serine, rat plasma, non-compartmental analysis
[5] = D-serine, rat brain tissue, non-compartmental analysis

Question: For `[Ca+2]` [Ca′], which “activity of the enzyme relative to purified human SR without divalent cation supplementation” value ([1]; @1 mM) is on record?
Answer: 134%

Question: Which D-Serine over control ([2]; rat, treated with serine racemase inhibitor, 1.86 mg/kg) does the source give for `N[C@@H](COS(=O)(=O)O)C(=O)O` [L-Serine 0-sulfate, L-Serine O-sulfate, reference compound] here?
Answer: substantially reduced

Question: Which “activity of the enzyme relative to purified human SR without divalent cation supplementation” value ([1]; @10 μM) does the source give for `[Mg+2]` [Mg^2+] here?
Answer: 112%

Question: For `[Mn+2]` [Mn^2+], which “activity of the enzyme relative to purified human SR without divalent cation supplementation” value ([1]; @10 μM) is on record?
Answer: 153%

Question: Which results are given for “magnesium 2-acetamidoethanesulfonate dihydrate [Test I]”?
Answer: ln(C) ([2]; Time 0 (pre-dose)): −0.3877; Conc ([2]; Time 0 (pre-dose)): 0.6786; ln(C) ([2]; Time 2 hr): −0.4986; Conc ([2]; Time 2 hr): 0.6074; ln(C) ([2]; Time 6 hr): −0.6686; Conc ([2]; Time 6 hr): 0.5124; ln(C) ([2]; Time 10 hr): −0.85; Conc ([2]; Time 10 hr): 0.4274; AUC ([2]; cumulative to Time 2 hr): 1.286; AUC ([2]; cumulative to Time 6 hr): 3.5256; AUC 0-inf_obs [2, 4]: 11130 ng·h/mL; AUMC 0-inf_obs [2, 4]: 343.2 μg/ml*h^2; Cl/F_obs [2, 4]: 2.39 (mg)/(μg/ml)/h; Cmax [2, 4]: 678.6 ng/mL; MRT 0-inf_obs [2, 4]: 22.68 h; Tlag [2, 4]: 0 h; Tmax [2, 4]: 0 h; Vz/F_obs [2, 4]: 54.4 (mg)/(μg/ml); t1/2 [2, 4]: 15.78 h; AUC 0-t ([2]; D-serine, rat plasma, non-compartmental analysis, 0-10 hr): 3405.2 ng·h/mL; Lambda_z ([2]; D-serine, rat plasma, non-compartmental analysis, extravascular input): 0.04393 L/h; AUC values of D-serine ([2]; rat plasma, G4 36.17 mg/kg, G5 31.01 mg/kg): increased; ln(C) ([3]; Time 0 (pre-dose)): −0.8701; Conc ([3]; Time 0 (pre-dose)): 0.4189; ln(C) ([3]; Time 2 hr): −0.981; Conc ([3]; Time 2 hr): 0.3749; ln(C) ([3]; Time 6 hr): −1.151; Conc ([3]; Time 6 hr): 0.3163; ln(C) ([3]; Time 10 hr): −1.332; Conc ([3]; Time 10 hr): 0.2638; AUC ([3]; cumulative to Time 2 hr): 0.7938; AUC ([3]; cumulative to Time 6 hr): 2.176; AUC 0-inf_obs [3, 5]: 7342 ng·h/mL; AUMC 0-inf_obs [3, 5]: 211.9 μg/ml*h^2; Cl/F_obs [3, 5]: 3.872 (mg)/(μg/ml)/h; Cmax [3, 5]: 418.9 ng/mL; MRT 0-inf_obs [3, 5]: 22.68 h; Tlag [3, 5]: 0 h; Tmax [3, 5]: 0 h; Vz/F_obs [3, 5]: 88.12 (mg)/(μg/ml); t1/2 [3, 5]: 15.78 h; AUC 0-t ([3]; D-serine, rat brain tissue, non-compartmental analysis, 0-10 hr): 2137 ng·h/mL; Lambda_z ([3]; D-serine, rat brain tissue, non-compartmental analysis, extravascular input): 0.04393 L/h; AUC values of D-serine ([3]; rat brain tissue samples, G4 36.17 mg/kg, G5 31.01 mg/kg): increased
